Test results taken from ChEMBL document CHEMBL5360655, “Design, Synthesis, and Biological Evaluation of Novel P2X7 Receptor Antagonists for the Treatment of Septic Acute Kidney Injury” (J Med Chem, 2023).
Active and inactive are the calls of the source. The calls are words filed in the database; no cut-off is given here.

Columns and labels:
[1] = target: T1, P2X purinoceptor 7 (Mus musculus, UniProt Q9Z1M0); experiment: Antagonist activity at mouse P2X7 receptor expressed in HEK293 cells assessed as inhibition of ATP-induced receptor pore formation by propidium iodide dye uptake based fluorescence analysis; type: cell-based
T1 sequence (Q9Z1M0 whole entry): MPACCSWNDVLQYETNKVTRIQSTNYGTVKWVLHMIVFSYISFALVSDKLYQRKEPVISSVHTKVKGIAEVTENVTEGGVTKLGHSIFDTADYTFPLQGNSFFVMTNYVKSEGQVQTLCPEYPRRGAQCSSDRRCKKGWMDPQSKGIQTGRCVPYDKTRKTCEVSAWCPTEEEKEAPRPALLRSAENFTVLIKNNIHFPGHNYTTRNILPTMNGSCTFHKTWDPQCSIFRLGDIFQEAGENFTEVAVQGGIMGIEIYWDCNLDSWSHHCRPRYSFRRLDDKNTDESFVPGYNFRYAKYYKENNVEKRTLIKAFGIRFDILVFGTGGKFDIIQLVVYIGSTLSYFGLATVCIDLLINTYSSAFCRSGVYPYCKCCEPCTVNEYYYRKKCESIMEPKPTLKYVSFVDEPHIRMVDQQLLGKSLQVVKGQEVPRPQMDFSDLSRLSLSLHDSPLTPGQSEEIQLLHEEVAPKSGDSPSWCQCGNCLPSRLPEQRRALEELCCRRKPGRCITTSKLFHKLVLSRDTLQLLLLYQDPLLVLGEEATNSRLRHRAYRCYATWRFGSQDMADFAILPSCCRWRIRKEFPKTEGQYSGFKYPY

[2] = target: T2, P2X purinoceptor 7 (Homo sapiens, UniProt Q99572); experiment: Antagonist activity at human P2X7 receptor expressed in HEK293 cells assessed as inhibition of ATP-induced receptor pore formation by propidium iodide dye uptake based fluorescence analysis; type: cell-based
T2 sequence (Q99572 whole entry): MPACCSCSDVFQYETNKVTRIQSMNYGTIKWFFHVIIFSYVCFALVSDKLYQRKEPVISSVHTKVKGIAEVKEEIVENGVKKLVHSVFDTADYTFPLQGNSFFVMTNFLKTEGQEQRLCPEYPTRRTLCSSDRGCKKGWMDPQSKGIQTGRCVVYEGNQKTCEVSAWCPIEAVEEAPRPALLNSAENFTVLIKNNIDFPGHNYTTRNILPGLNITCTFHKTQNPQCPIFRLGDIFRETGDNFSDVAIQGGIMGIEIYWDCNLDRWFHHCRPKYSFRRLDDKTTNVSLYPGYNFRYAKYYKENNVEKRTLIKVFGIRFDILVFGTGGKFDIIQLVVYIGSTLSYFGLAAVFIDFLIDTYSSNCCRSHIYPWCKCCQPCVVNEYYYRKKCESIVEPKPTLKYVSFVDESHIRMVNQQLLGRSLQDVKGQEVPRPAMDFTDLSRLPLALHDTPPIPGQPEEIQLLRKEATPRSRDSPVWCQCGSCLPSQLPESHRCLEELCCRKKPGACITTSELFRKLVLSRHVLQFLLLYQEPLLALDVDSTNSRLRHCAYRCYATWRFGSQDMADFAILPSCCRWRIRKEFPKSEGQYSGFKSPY

[3] = target: T3, P2X purinoceptor 7 (Homo sapiens) (UniProt Q99572); experiment: Antagonist activity at human P2X7 receptor expressed in HEK293 cells assessed as inhibition of ATP-induced receptor pore formation at 1 uM by propidium iodide dye uptake based fluorescence analysis; type: cell-based; settings: filed as antagonist
T3 sequence (whole entry): T2 sequence (Q99572 whole entry)

[4] = Intrinsic clearance in human liver microsomes; type: ADME, Microsome; settings: read-out: CLH
[5] = Half life in human liver microsomes; type: ADME, Microsome
[6] = target: T4, P2X purinoceptor 7 (Mus musculus) (UniProt Q9Z1M0); experiment: Antagonist activity at mouse P2X7 receptor expressed in HEK293 cells assessed as inhibition of ATP-induced receptor pore formation at 200 nM by propidium iodide dye uptake based fluorescence analysis; type: cell-based
T4 sequence (whole entry): T1 sequence (Q9Z1M0 whole entry)

[7] = Half life in mouse liver microsomes; type: ADME, Microsome
[8] = target: T3, P2X purinoceptor 7 (Homo sapiens); experiment: Antagonist activity at human P2X7 receptor expressed in HEK293 cells assessed as inhibition of ATP-induced receptor pore formation at 200 nM by propidium iodide dye uptake based fluorescence analysis; type: cell-based
[9] = target: T4, P2X purinoceptor 7 (Mus musculus); experiment: Antagonist activity at mouse P2X7 receptor expressed in HEK293 cells assessed as inhibition of ATP-induced receptor pore formation at 1 uM by propidium iodide dye uptake based fluorescence analysis; type: cell-based; settings: filed as antagonist
[10] = Intrinsic clearance in mouse liver microsomes; type: ADME, Microsome; settings: read-out: CLH
[11] = AUC(0 to t) in BALB/c mouse at 10 mg/kg, iv measured for 24 hrs by LC-MS/MS analysis; type: ADME, organism-based; set-up: time 24 hrs, dose 10 mg/kg, route iv; settings: in vivo
[12] = Half life in BALB/c mouse at 10 mg/kg, iv measured for 24 hrs by LC-MS/MS analysis; type: ADME, organism-based; settings: in vivo
[13] = target: T4, P2X purinoceptor 7 (Mus musculus); experiment: Antagonist activity at mouse P2X7 receptor expressed in HEK293 cells assessed as inhibition of ATP-induced receptor pore formation at 10 uM by propidium iodide dye uptake based fluorescence analysis; type: cell-based; settings: filed as antagonist
[14] = target: T3, P2X purinoceptor 7 (Homo sapiens); experiment: Antagonist activity at human P2X7 receptor expressed in HEK293 cells assessed as inhibition of ATP-induced receptor pore formation at 10 uM by propidium iodide dye uptake based fluorescence analysis; type: cell-based; settings: filed as antagonist
[15] = Clearance in BALB/c mouse at 10 mg/kg, iv measured for 24 hrs by LC-MS/MS analysis; type: ADME, organism-based; settings: in vivo
[16] = system: Mus musculus; experiment: Reno-protective activity against LPS-induced acute kidney injury C57BL/6J mouse model assessed as decrease in BUN level at 10 mg/kg, ip administered twice at 30 mins prior to LPS challenge and 8 hrs post-LPS challenge and measured at 16 hrs post-LPS challenge; type: functional, organism-based; settings: time 16.5 hrs
[17] = Cmax in BALB/c mouse at 10 mg/kg, po measured for 24 hrs by LC-MS/MS analysis; type: ADME, organism-based; set-up: time 24 hrs, dose 10 mg/kg, route po; settings: in vivo
[18] = target: T2, P2X purinoceptor 7; experiment: Antagonist activity at P2X7 receptor in human THP-1 cells assessed as inhibition of ATP-induced IL-1beta secretion pretreated with LPS for 3 hrs followed by incubation with compound for 40 mins followed by treatment with ATP for 1 hr by ELISA; type: cell-based
[19] = Tmax in BALB/c mouse at 10 mg/kg, po measured for 24 hrs by LC-MS/MS analysis; type: ADME, organism-based; settings: in vivo
[20] = AUC(0 to t) in BALB/c mouse at 10 mg/kg, po measured for 24 hrs by LC-MS/MS analysis; type: ADME, organism-based; set-up: time 24 hrs, dose 10 mg/kg, route po; settings: in vivo
[21] = system: Mus musculus; experiment: Reno-protective activity against LPS-induced acute kidney injury C57BL/6J mouse model assessed as decrease in serum […] level at 10 mg/kg, ip administered twice at 30 mins prior to LPS challenge and 8 hrs post-LPS challenge and measured at 16 hrs post-LPS challenge; type: functional, organism-based; settings: time 16.5 hrs
[22] = Cmax in BALB/c mouse at 10 mg/kg, iv measured for 24 hrs by LC-MS/MS analysis; type: ADME, organism-based; set-up: time 24 hrs, dose 10 mg/kg, route iv; settings: in vivo
[23] = Tmax in BALB/c mouse at 10 mg/kg, iv measured for 24 hrs by LC-MS/MS analysis; type: ADME, organism-based; settings: in vivo
[24] = Clearance in BALB/c mouse at 10 mg/kg, po measured for 24 hrs by LC-MS/MS analysis; type: ADME, organism-based; settings: in vivo
[25] = Oral bioavailability in BALB/c mouse at 10 mg/kg measured for 24 hrs by LC-MS/MS analysis; type: ADME, organism-based; settings: in vivo
[26] = Half life in BALB/c mouse at 10 mg/kg, po measured for 24 hrs by LC-MS/MS analysis; type: ADME, organism-based; settings: in vivo

Row | Compound | IC50 [1] [nM] | IC50 [2] [nM] | inhibition [3] [%] | CLint scaled [4] [mL/min/kg] | half-life [5] [min] | half-life [7] [min] | inhibition [8] [%] | inhibition [9] [%] | CLint scaled [10] [mL/min/kg] | inhibition ([6]; filed as antagonist) [%] | inhibition ([8]; filed as antagonist) [%] | further results
1 | COc1ccc(-c2ccc(Cl)c(C(=O)NCc3cn(-c4cc(Cl)ccn4)nn3)c2)cc1OC | 1790 | 285 | 59.2 | 17.8 | 97.6 | 25.3 | 35.7 | 51 | 216 | – | – | inhibition [6]: inactive
2 | O=C(NCC1(N2CCN(c3ccccc3)CC2)CCOCC1)c1cccnc1Sc1ccccc1 | – | – | 95.2 | 40.9 | 42.5 | 61.9 | – | 92 | 88.2 | 87.3 | 93.8 | AUC(0-t) at 24 h [11]: 310 ng·h/mL; half-life [12]: 46.2 min; inhibition [13]: 89%; inhibition [14]: 92%; clearance [15]: 538 mL/min/kg; Activity [16]: Active; Cmax [17]: 270 ng/mL; IC50 [18]: < 30 nM; Tmax [19]: 4.8 min; AUC(0-t) at 24 h [20]: 155 ng·h/mL; Activity [21]: Active; Cmax [22]: 516 ng/mL; Tmax [23]: 4.8 min; CL/F [24]: 1080 mL/min/kg; bioavailability [25]: 49.9%; half-life [26]: 48 min
3 | CS(=O)(=O)Nc1ccc(-c2ncc(C(=O)NCc3cn(-c4cc(Cl)ccn4)nn3)s2)cc1 | 93.3 | 340 | 52.3 | < 12 | > 120 | > 120 | 26.6 | 89.8 | < 12 | 71.6 | – | –
4 | CS(=O)(=O)Nc1cccc(-c2ccc(Cl)c(C(=O)NCc3cn(-c4cc(Cl)ccn4)nn3)c2)c1 | 1860 | 91.4 | 76.9 | 30.6 | 56.8 | 83.5 | 30.8 | 74.7 | 65.4 | – | – | inhibition [6]: 32.8%
5 | O=C(NCc1cn(-c2cc(Cl)ccn2)nn1)c1cnc(-c2cccc(NS(=O)(=O)C3CC3)c2)s1 | 69.9 | 656 | 62.5 | < 12 | > 120 | > 120 | – | 83.9 | < 12 | 68.3 | 40 | –
6 | CC(C)S(=O)(=O)c1ccc(-c2ncc(C(=O)NCc3cn(-c4cc(Cl)ccn4)nn3)s2)cc1 | 344 | 659 | 56.3 | 40.4 | 43 | 82.5 | 22.1 | 92.6 | 66.2 | 67.6 | – | –
7 | O=C(NCc1cn(-c2cc(Cl)ccn2)nn1)c1cnc(-c2cccc(NS(=O)(=O)N3CCOCC3)c2)s1 | 58.5 | 436 | 78.8 | 24.1 | 72.2 | 25.4 | – | 112 | 215 | 82.4 | 46.5 | –
8 | O=C(NCc1cn(-c2cc(Cl)ccn2)nn1)c1cnc(-c2ccc(NS(=O)(=O)N3CCOCC3)cc2)s1 | 104 | 99.6 | 86.1 | 15.3 | 114 | 35.4 | – | 78.2 | 154 | 54.3 | 55.2 | –
